Measurements as given in patent US20050153999A1, “Pharmaceutical compositions” (SCHERING CORPORATION, priority 2003, published 2005).
Structures can show the parent of a compound that is named as a salt. Where two headings read alike, the source gives them in different places. One block for each molecule: values may come before it.

Assay: Equilibrium solubility in aqueous solutions containing different concentrations of Captisol
Format: physicochemical
Conditions: aqueous solution containing Captisol, 20 °C, thermodynamic from solid, free form equivalent
Protocol: Captisol® improves the solubility of the compound of Formula I in free base form, HCl salt and tosylate salt. Solubility of the above compounds was determined by equilibrating the powder with aqueous solutions containing different concentration of Captisol® at ambient temperature (20° C.).
The solutions were prepared in accordance with methods known to one of skill in the art.

solubility (pH 5, aqueous buffer, Captisol 0 % w/v, pH 5 (NaOH adjusted), ambient temperature (20° C.), read-out: Solubility of Compound I HCl salt at pH 5 (pH adjusted by NaOH)): 50 µg/mL | solubility (pH 5, aqueous with cosolvent or surfactant or cyclodextrin, Captisol 2 % w/v, pH 5 (NaOH adjusted), ambient temperature (20° C.), read-out: Solubility of Compound I HCl salt at pH 5 (pH adjusted by NaOH)): 3500 µg/mL | solubility (pH 5, aqueous with cosolvent or surfactant or cyclodextrin, Captisol 5 % w/v, pH 5 (NaOH adjusted), ambient temperature (20° C.), read-out: Solubility of Compound I HCl salt at pH 5 (pH adjusted by NaOH)): 4700 µg/mL | solubility (pH 5, aqueous with cosolvent or surfactant or cyclodextrin, Captisol 10 % w/v, pH 5 (NaOH adjusted), ambient temperature (20° C.), read-out: Solubility of Compound I HCl salt at pH 5 (pH adjusted by NaOH)): 10000 µg/mL
Compound: C[C@@H](OC[C@@]1(c2ccccc2)CC[C@]2(CCC(=O)N2)CN1)c1cc(C(F)(F)F)cc(C(F)(F)F)c1 [Compound I HCl salt]

solubility (pH 5, aqueous buffer, Captisol 0 % w/v, pH 5 (NaOH adjusted), 20° C., read-out: Solubility of Compound I Tosylate salt at pH 5 (pH adjusted by NaOH)): 150 µg/mL | solubility (pH 5, aqueous with cosolvent or surfactant or cyclodextrin, Captisol 10 % w/v, pH 5 (NaOH adjusted), 20° C., read-out: Solubility of Compound I Tosylate salt at pH 5 (pH adjusted by NaOH)): 940 µg/mL | solubility (pH 5, aqueous with cosolvent or surfactant or cyclodextrin, Captisol 20 % w/v, pH 5 (NaOH adjusted), 20° C., read-out: Solubility of Compound I Tosylate salt at pH 5 (pH adjusted by NaOH)): 1800 µg/mL | solubility (pH 5, aqueous with cosolvent or surfactant or cyclodextrin, Captisol 40 % w/v, pH 5 (NaOH adjusted), 20° C., read-out: Solubility of Compound I Tosylate salt at pH 5 (pH adjusted by NaOH)): 4100 µg/mL
Compound: C[C@@H](OC[C@@]1(c2ccccc2)CC[C@]2(CCC(=O)N2)CN1)c1cc(C(F)(F)F)cc(C(F)(F)F)c1 [Compound I Tosylate salt]

solubility (pH 5.2, aqueous buffer, Captisol 0 % w/v, pH 5.2 citric acid buffered, 20° C., read-out: Solubility of Compound I free base at pH 5.2 (citric acid buffered)): 170 µg/mL | solubility (pH 5.2, aqueous with cosolvent or surfactant or cyclodextrin, Captisol 2 % w/v, pH 5.2 citric acid buffered, 20° C., read-out: Solubility of Compound I free base at pH 5.2 (citric acid buffered)): 2200 µg/mL | solubility (pH 5.2, aqueous with cosolvent or surfactant or cyclodextrin, Captisol 5 % w/v, pH 5.2 citric acid buffered, 20° C., read-out: Solubility of Compound I free base at pH 5.2 (citric acid buffered)): 4600 µg/mL | solubility (pH 5.2, aqueous with cosolvent or surfactant or cyclodextrin, Captisol 10 % w/v, pH 5.2 citric acid buffered, 20° C., read-out: Solubility of Compound I free base at pH 5.2 (citric acid buffered)): 7200 µg/mL | solubility (pH 5.2, aqueous with cosolvent or surfactant or cyclodextrin, Captisol 20 % w/v, pH 5.2 citric acid buffered, 20° C., read-out: Solubility of Compound I free base at pH 5.2 (citric acid buffered)): 12000 µg/mL | solubility (pH 7.2, aqueous buffer, Captisol 0 % w/v, pH 7.2 phosphate buffered, 20° C., read-out: Solubility of Compound I free base at pH 7.2 (phosphate buffered)): 2 µg/mL | solubility (pH 7.2, aqueous with cosolvent or surfactant or cyclodextrin, Captisol 2 % w/v, pH 7.2 phosphate buffered, 20° C., read-out: Solubility of Compound I free base at pH 7.2 (phosphate buffered)): 50 µg/mL | solubility (pH 7.2, aqueous with cosolvent or surfactant or cyclodextrin, Captisol 5 % w/v, pH 7.2 phosphate buffered, 20° C., read-out: Solubility of Compound I free base at pH 7.2 (phosphate buffered)): 150 µg/mL | solubility (pH 7.2, aqueous with cosolvent or surfactant or cyclodextrin, Captisol 10 % w/v, pH 7.2 phosphate buffered, 20° C., read-out: Solubility of Compound I free base at pH 7.2 (phosphate buffered)): 290 µg/mL | solubility (pH 7.2, aqueous with cosolvent or surfactant or cyclodextrin, Captisol 20 % w/v, pH 7.2 phosphate buffered, 20° C., read-out: Solubility of Compound I free base at pH 7.2 (phosphate buffered)): 610 µg/mL
Compound: C[C@@H](OC[C@@]1(c2ccccc2)CC[C@]2(CCC(=O)N2)CN1)c1cc(C(F)(F)F)cc(C(F)(F)F)c1 [Compound I free base]
